The numbers were not newly measured in patent publication US20020151447A1, “Reduced toxicity 1-bromopropane cleaning agent production process” (POLYMER SOLVENTS, INC., priority 1997, published 2002), which cites them from elsewhere.

Data set [1] relates to mammals. To be noted: in vivo.
The conditions of data set [2]: 8 hour workday.

As for `CCCBr` [1-bromopropane], the toxicity to mammals entry in data set [1] is recorded as “relatively low toxicity”. In data set [2], the “workplace exposure limit for handlers” value is 100 ppm.
